From patent US10844023B2 (Washington University, priority 2017, dated 2020)

Test system: Mfn2 null MEFs
Test: Mitochondrial elongation (aspect ratio) fusogenicity assay
Format: cell-based, mouse
Set-up: % long compare to B: dose or concentration left out as unconfirmed
Conditions: for % long compare to B: mitochondrial elongation relative to Cpd B (B01 = 100), compound overnight as printed (FIG. 48); for % long compare to B / Aspect ratio (MEAN ± SEM): Mfn2 null MEFs; for Aspect ratio (MEAN ± SEM): overnight, treatment with 1 μM compound (footnote); for Fusogenicity Rank: rank order of aspect ratio among 44 soluble library compounds
Text: A cultured murine embryonic fibroblast assay system was used in which mitochondrial elongation (an increase in aspect ratio) reflects enhanced mitochondrial fusion.
A pharmacophore model was generated based on the interactions of HR1 and HR2 domains in the calculated structural model of Mfn2 in the closed conformation. The key features included hydrophobic interactions involving Mfn2 HR1: Val372 and Met376, and aromatic interactions and hydrogen bonding involving Mfn2 HR1 His380. […] A library comprising ˜14 million commercially available compounds was prepared in silico and evaluated using PHASE to fit these criteria. Top ranked hits were clustered, and filtered based on pharmacological properties using Qikprop. The top 55 (see TABLE 4) commercially available small molecules conforming to the model were selected for functional screening and purchased in 1 mg aliquots. […] Images were acquired by confocal microscopy. Each compound was scored for fusogenicity (see e.g., FIG. 24A) and % cell death (see e.g., FIG. 24B).
Cells were excited with 408 nm (Hoechst), […] (MitoTracker Green and Calcein AM, GFP), or 637 nm (TMRE, MitoTracker Orange, Ethidium homodimer-1, and AF594-Dextran) laser diodes. For mitochondrial elongation studies mitochondrial aspect ratio (long axis/short axis) was calculated using automated edge detection and Image J software. Mitochondrial depolarization was calculated as % of green mitochondria visualized on MitoTracker Green and TMRE merged images, expressed as green/(green+yellow mitochondria)×100.

SMILES | % long compare to B [%] | Aspect ratio (MEAN ± SEM) | Fusogenicity Rank
Cc1cccc(-n2ccnc2SC(C)C(=O)Nc2sc3c(c2C(N)=O)CCC3)c1C (stereo not drawn) [1-E10, 2-(2-{[1-(2,3-dimethylphenyl)-1H-imidazol-2-yl]sulfanyl}pro-panamido)-4H,5H,6H-cyclo-penta[b]thiophene-3-carboxamide] | 21 |  | 
CCOc1ccccc1NC(=O)CSCc1cc(=O)c2ccc(C)c(C)c2[nH]1 [drawing 248, 2-{[(7,8-dimethyl-4-oxo-1,4-dihydroquinolin-2-yl)methyl]sulfanyl}-N-(2-ethoxyphenyl)acetamide] |  | 3.7 ± 0.6 | 24
Cc1ccc(-n2c(SC(C)C(=O)Nc3ccnn3C(C)C)nnc2N2CCOCC2)cc1 (stereo not drawn) [drawing 229, 2-{[4-(4-methylphenyl)-5-(morpholin-4-yl)-4H-1,2,4-triazol-3-yl]sulfanyl}-N-[1-(propan-2-yl)-1H-pyrazol-5-yl]propanamide] |  | 4.1 ± 0.9 | 15
Cc1ccc(NC(=O)NCCCCc2ccccc2)cc1 [A4, 3-(4-methylphenyl)-1-(4-phenylbutyl)urea] | 75 |  | 
Cn1c(SCC(=O)Nc2sc3c(c2C(N)=O)CCC3)nnc1-c1ccc(F)cc1 [1-A3, 2-(2-{[5-(4-fluorophenyl)-4-methyl-4H-1,2,4-triazol-3-yl]sulfanyl}acetamido)-4H,5H,6H-cyclopenta[b]-thiophene-3-carboxamide] | −10 |  | 
CC(Sc1nc(CN2CCOCC2)nc2ccccc12)C(=O)Nc1cccc(C(F)(F)F)c1 (stereo not drawn) [A08, 2-({2-[(morpholin-4-yl)methyl]quinazolin-4-yl}sulfanyl)-N-[3-(trifluoromethyl)-phenyl]propanamide] | 47 |  | 
CC(Sc1nnc(Cc2ccccc2)n1C)C(=O)Nc1sc2c(c1C(N)=O)CCC2 (stereo not drawn) [1-H6, 2-{2-[(5-benzyl-4-methyl-4H-1,2,4-triazol-3-yl)sulfanyl]propanamido}-4H.5H.6H-cyclopenta[b]-thiophene-3-carboxamide] | 8 |  | 
NC(=O)c1c(NC(=O)CSc2nnc(C3CC3)n2Cc2ccccc2)sc2c1CCCC2 [1-H11, 2-{2-[(4-benzyl-5-cyclopropyl-4H-1,2,4-triazol-3-yl)-sulfanyl]acetamido}-4,5,6,7-tetrahydro-1-benzothiophene-3-carboxamide] | 15 |  | 
CCn1c(CCc2ccccc2)nnc1SCC(=O)Nc1sc2c(c1C(N)=O)CCC(C)C2 (stereo not drawn) [2-A4, 2-(2-{[4-ethyl-5-(2-phenylethyl)-4H-1,2,4-triazol-3-yl]sulfanyl}acetamido)-6-methyl-4,5,6,7-tetrahydro-1-benzothiophene-3-carboxamide] | 3 |  | 
Cn1c(CC2CCS(=O)(=O)C2)nnc1SCC(=O)Nc1sc2c(c1C(N)=O)CCCC2 (stereo not drawn) [1-C6, 2-[2-({5-[(1,1-dioxo-1λ^6-thiolan-3-yl)methyl]-4-methyl-4H-1,2,4-triazol-3-yl}sulfanyl)-acetamido]-4,5,6,7-tetrahydro-l-benzothiophene-3-carboxamide] | 23 |  | 
Cc1nc[nH]c1CSCCn1cnc2cn(C)nc2c1=O [drawing 206, 2-methyl-6-(2-{[(4-methyl-1H-imidazol-5-yl)methyl]sulfanyl}ethyl)-2H,6H,7H-pyrazolo[4,3-d]pyrimidin-7-one] |  | 2.8 ± 0.2 | 42
CC(Sc1nnc(-c2cccs2)n1-c1ccccc1)C(=O)Nc1sc2c(c1C(N)=O)CCC2 (stereo not drawn) [1-F7, 2-(2-{[4-phenyl-5-(thiophen-2-yl)-4H-1,2,4-lriazol-3-yl]sul-fanyl}propanamido)-4H,5H,6H-cyclopenta[b]thiophene-3-carboxamide] | −26 |  | 
CC(Sc1nnc(Cc2cccs2)n1C1CC1)C(=O)Nc1sc2c(c1C(N)=O)CCC2 (stereo not drawn) [1-G6, 2-[2-({4-cyclopropyl-5-[(thiophen-2-yl)methyl]-4H-1,2,4-triazol-3-yl}sulfanyl)propanamido]-4H,5H,6H-cyclopenta[b]thio-phene-3-carboxamide] | 9 |  | 
NC(=O)c1c(NC(=O)CSc2nnc(-c3ccco3)n2-c2ccccc2)sc2c1CCC2 [1-F1, 2-(2-{[5-(furan-2-yl)-4-phenyl-4H-1,2,4-triazol-3-yl]sulfanyl}-acetamido)-4H,5H,6H-cyclo-penta[b]thiophene-3-carboxamide] | 21 |  | 
CC(Sc1nnc(-c2ccccc2)n1Cc1ccco1)C(=O)Nc1sc2c(c1C(N)=O)CCC2 (stereo not drawn) [1-D7, 2-[2-({4-[(furan-2-yl)methyl]-5-phenyl-4H-1,2,4-triazol-3-yl}sulfanyl)propanamido]-4H,5H,6H-cyclopenta[b]thio-phene-3-carboxamide] | 92 |  | 
Cc1cc(C)n2nc(C(=O)N3C[C@@H]4CCN(Cc5nccn5C)[C@@H]4C3)cc2n1 [drawing 198, 2-{[(3aS,6aS)-5-{5,7-dimethylpyrazolo[1,5-a]pyrimidine-2-carbonyl}-octahydropyrrolo[3,4-b]pyrrol-1-yl]methyl}-1-methyl-1H-imidazole] |  | 9.0 ± 3.1 | 1
Cn1c(SCC(=O)Nc2sc3c(c2C(=O)NCc2ccccc2)CCCC3)nnc1C1CC1 [1-B5, N-benzyl-2-{2-[(5-cyclopropyl-4-methyl-4H-1,2,4-triazol-3-yl)sulfanyl]acetamido}-4,5,6,7-tetrahydro-1-benzothiophene-3-carboxamide] | −31 |  | 
Cn1c(Cc2ccccc2)nnc1SCC(=O)Nc1sc2c(c1C(N)=O)CCC2 [1-H7, 2-{2-[(5-benzyl-4-methyl-4H-1,2,4-triazol-3-yl)sulfanyl]-acetamido}-4H,5H,6H-cyclopenta[b]thiophene-3-carboxamide] | 6 |  | 
Cc1ccccc1-c1nnc(SCC(=O)Nc2sc3c(c2C(N)=O)CCC3)n1C [1-E7, 2-(2-{[4-methyl-5-(2-methyl-phenyl)-4H-1,2,4-triazol-3-yl]sulfanyl}acetamido)-4H,5H,6H-cyclopenta[b]-thiophene-3-carboxamide] | 9 |  | 
Cc1nnc(SCC(=O)Nc2sc3c(c2C(N)=O)CCC3)n1-c1ccccc1 [1-H3, 2-{2-[(5-methyl-4-phenyl-4H-1,2,4-triazol-3-yl)sulfanyl]acet-amido}-4H,5H,6H-cyclo-penta[b]thiophene-3-carboxamide] | 10 |  | 
O=C(NCCCCc1ccccc1)Nc1ccccc1 [pA, 3-phenyl-1-(4-phenylbutyl)urea] | 59 |  | 
Cc1ccc(SC2CCN(Cc3cc4n(n3)CCNC4)CC2)cc1 [drawing 246, 4-[(4-methylphenyl)sulfanyl]-1-({4H,5H,6H,7H-pyrazolo[1,5-a]pyrazin-2-yl}methyl)piperidine] |  | 2.9 ± 0.2 | 39
C=CCn1c(SCC(=O)Nc2sc3c(c2C(N)=O)CCCC3)nnc1C1CC1 [1-F9, 2-(2-{[5-cyclopropyl-4-(prop-2-en-1-yl)-4H-1,2,4-triazol-3-yl]sulfanyl}acet-amido)-4,5,6,7-tetrahydro-1-benzothiophene-3-carboxamide] | 202 |  | 
Cn1c(SCC(=O)Nc2sc3c(c2C(N)=O)CCC3)nnc1C(F)(F)F [1-B4, 2-(2-{[4-methyl-5-(trifluoro-methyl)-4H-1,2,4-triazol-3-yl]sulfanyl}acetamido)-4H,5H,6H-cyclopenta[b]-thiophene-3-carboxamide] | 10 |  | 
CC(Sc1nnc(CC2CCS(=O)(=O)C2)n1C)C(=O)Nc1sc2c(c1C(N)=O)CCC2 (stereo not drawn) [1-E9, 2-[2-({5-[(1,1-dioxo-1λ^6-thiolan-3-yl)methyl]-4-methyl-4H-1,2,4-triazol-3-yl}sulfanyl)propanamido]-4H,5H,6H-cyclopenta[b]thio-phene-3-carboxamide] | 0 |  | 
Cn1c(CC(=O)Nc2ccccc2)nnc1SCC(=O)Nc1sc2c(c1C(=O)NCc1ccccc1)CCCC2 [2-A1, N-benzyl-2-[2-({4-methyl-5-[(phenylcarbamoyl)methyl]-4H-1,2,4-triazol-3-yl}sulfanyl)acetamido]-4,5,6,7-tetrahydro-1-benzothiophene-3-carboxamide] | 26 |  | 
CC1CCc2c(sc(NC(=O)CSc3nc(C4CC4)n(-c4ccccc4)n3)c2C(N)=O)C1 (stereo not drawn) [1-B11, 2-{2-[(5-cyclopropyl-1-phenyl-1H-1,2,4-triazol-3-yl)sulfanyl]acetamido}-6-methyl-4,5,6,7-tetrahydro-1-benzothiophene-3-carboxamide] | −12 |  | 
Cc1nc[nH]c1CSCCNC(=O)C1CCN(C(=O)C2CCC2)CC1 [D11, 1-cyclobutanecarbonyl-N-(2-{[(4-methyl-1H-imidazol-5-yl)methyl]sulfanyl}-ethyl)piperidine-4-carboxamide] | −8 |  | 
CC1CCc2c(sc(NC(=O)CSc3nnc(C4CC4)n3-c3ccccc3)c2C#N)C1 (stereo not drawn) [1-B2, N-(3-cyano-6-methyl-4,5,6,7-tetrahydro-1-benzothiophen-2-yl)-2-[(5-cyclopropyl-4-phenyl-4H-1,2,4-triazol-3-yl)sulfanyl]acetamide] | −11 |  | 
O=C(NCCSCc1ccccc1)C1CCCCO1 (stereo not drawn) [drawing 218, N-[2-(benzylsulfanyl)ethyl]oxane-2-carboxamide] |  | 3.3 ± 0.4 | 30
